Key:
[1] = system: Schmallenberg virus (SBV); experiment: Cotreatment assay (plaque reduction); assay type: cell-based; conditions: for SI, Cotreatment: selectivity index CC50 value/IC50 value; for percentage of viral inhibition at 100 μM (library screening): cotreatment, peptide 100 μM, SBV on BHK-21 cells, threshold 50% inhibition; for IC50: peptide + SBV (MOI 0.01) together on BHK-21 cells 2 h 37°C, plaques after 72 h, triplicate
From the text: Baby Hamster Kidney cells (BHK-21) (ATCC CCL-10, Manassas, VA, USA), Madin–Darby bovine kidney (MDBK, ATCC CCL-22), and Vero/hSLAM cells (ECACC 04091501, Porton Down, United Kingdom) were cultivated in Dulbecco's modified Eagle's medium (DMEM, Microtech, Naples, Italy) supplemented with 10% fetal bovine serum (FBS) (Microtech). Viruses were kindly provided by Professor Giuseppe Iovane (University Federico II, Naples, Italy). Cells were infected with a multiplicity of infection (MOI) of 0.01, and we assessed viral titers through plaque assays.
SBV titration was performed on BHK-21 cells. Briefly, BHK-21 cell monolayers in 12-well cell culture plates were infected with SBV dilutions. After 1 h of incubation, viral inocula were removed and a mixture of DMEM 10% FBS and 3% carboxymethyl cellulose (CMC) was added to all wells. After incubation for 72 h, cells were fixed with 4% formaldehyde solution and stained with 0,5% crystal violet (Sigma-Aldrich, St. Louis, MO, USA). Plaques were scored and stock virus titration was calculated as plaque forming unit (PFU)/ml.
Peptides were dissolved in water. To assess the impact of these peptides on inhibiting SBV infectivity, a very general assay (cotreatment) was performed by treating cells (5 × 10^5 cells/well) with peptides at 200, 100, 50, 25, 12.5, 6.25, and 1 μM and incubating them with the viral inoculum (MOI of 0.01) for 2 h at 37°C. To effectively inactivate nonpenetrated viruses, we treated cells with citrate buffer (pH 3.0) and then cultured BHK-21 for 72 h at 37°C/5% CO2 in DMEM enriched with 10% FBS and CMC. The monolayers were finally fixed and stained, and the plaque number was scored. The percentage of inhibition was calculated in comparison to the control group (cell infected and treated with no peptide).

[2] = system: Schmallenberg virus (SBV); experiment: Virus pretreatment assay (plaque reduction); assay type: cell-based; conditions: for SI, Virus pretreatment: selectivity index CC50 value/IC50 value; for IC50: peptide + SBV (MOI 0.1) 1 h 37°C, then diluted on BHK-21 cells (final MOI 0.01), plaques after 72 h
Protocol: (§1) Peptide concentrations are the same as used in the initial cotreatment assay. Virus pretreatment assay: peptides were added to the virus (MOI of 0.1) for 1 h at 37°C. Following the incubation period, the mixture of virus and peptide was diluted on cells for 2 h: this process allowed the peptides to achieve a nonactive concentration while ensuring that the virus remained at an optimal final MOI of 0.01. Then, the cells underwent a 72-h incubation with CMC. Cell pretreatment: Precooled cells were treated with the peptides for 1 h, followed by the incubation of the viral inoculum (MOI of 0.01) for 2 hr at 37°C. At the end, cells were overlaid with CMC for 72 hr at 37°C. Posttreatment: Cells were treated with peptide following the viral infection (MOI of 0.01 pfu/mL) for 2 h at 37°C; then, CMC was added for 72 h at 37°C. For each treatment, the IC50, which is the peptide concentration resulting in a 50% reduction of SBV infectivity, was calculated.

[3] = system: Schmallenberg virus (SBV); experiment: Cell pretreatment assay (plaque reduction); assay type: cell-based; conditions: precooled BHK-21 cells treated with peptide 1 h, then SBV MOI 0.01 for 2 h 37°C; plaques after 72 h
Protocol: as §1

[4] = system: Schmallenberg virus (SBV); experiment: Attachment assay (temperature shift); assay type: cell-based; conditions: for SI, Attachment: selectivity index CC50 value/IC50 value; for IC50: BHK-21 cells, SBV MOI 0.01 and peptide simultaneously 2 h at 4°C, plaques after 72 h at 37°C
Protocol: (§2) Two additional assays were performed. Peptide concentrations are the same as those used in the other treatments. Attachment assay: Cells were infected with the virus (MOI 0.01) and simultaneously each peptide was inoculated for 2 h at 4°C; then, cells were left in CMC for 72 h at 37°C. Entry assay: BHK-21 monolayer was infected with SBV (MOI 0.01) for 2 h at 4°C, followed by the treatment with each peptide for 1 h at 37°C; finally, CMC was added on cells. Similarly to other assays, at the end, viral plaques were observed.

[5] = system: Schmallenberg virus (SBV); experiment: Entry assay (temperature shift); assay type: cell-based; conditions: for SI, Entry: selectivity index CC50 value/IC50 value; for IC50: BHK-21 infected with SBV MOI 0.01 2 h at 4°C, then peptide 1 h at 37°C, plaque count
Protocol: as §2

[6] = system: Schmallenberg virus (SBV); experiment: Posttreatment assay (plaque reduction); assay type: cell-based; conditions: BHK-21 cells treated with peptide after SBV infection (MOI 0.01, 2 h 37°C); plaques after 72 h
Protocol: as §1

BHK-21 cells = experiment: MTT cytotoxicity assay; assay type: cell-based, Hamster; conditions: 24 h treatment, peptides 1-200 µM, read at 570 nm, triplicate
Protocol: Peptide cytotoxicity was measured by 3- (4, 5-dimethylthiazol-2-yl)-2, 5-diphenyltetrazolium bromide (MTT) assay according to manufacturer's instructions (Sigma-Aldrich, St. Louis, Missouri, United States). BHK-21 cells (4 × 10^4 cells/well) were treated with peptides at different concentrations ranging from 1 µM to 200 and, after 24 h, 100 μL of the MTT solution (5 mg/mL) was incubated for 3 h at 37°C. Then, we used DMSO (Sigma Aldrich) to dissolve tetrazolium salts under agitation. Cytotoxicity was analyzed at 570 nm, and cell viability was measured against control cells—those that received no treatment. At the end, the 50% cytotoxic concentration (CC50) was determined using GraphPad Prism software (GraphPad Software, San Diego, CA, USA).

Structure (SMILES)	SI, Cotreatment [1]	SI, Virus pretreatment [2]	IC50 [3]	SI, Attachment [4]	SI, Entry [5]	IC50 [6]	percentage of viral inhibition at 100 μM (library screening) [1]	IC50 [1]	IC50 [2]	IC50 [4]	IC50 [5]	CC50 (BHK-21 cells)
CC[C@H](C)[C@H](NC(=O)[C@@H](NC(=O)[C@H](CC(=O)O)NC(=O)[C@H](CCCCN)NC(=O)[C@H](CCCNC(=N)N)NC(=O)[C@H](CC(N)=O)NC(=O)[C@@H](N)Cc1ccccc1)C(C)C)C(=O)N[C@@H](CC(C)C)C(=O)N[C@@H](CCCNC(=N)N)C(=O)N[C@@H](CCCNC(=N)N)C(=O)N[C@@H](CS)C(=O)N[C@@H](Cc1ccccc1)C(=O)N[C@@H](CC(=O)O)C(=O)N[C@@H](CC(N)=O)C(=O)N[C@@H](CO)C(=O)N[C@@H](Cc1ccc(O)cc1)C(=O)N[C@@H](CCC(N)=O)C(=O)N[C@@H](CO)C(=O)N[C@@H](CS)C(=O)N[C@@H](CC(C)C)C(=O)N[C@@H](CC(C)C)C(=O)N[C@@H](CC(C)C)C(=O)N[C@@H](CCC(=O)O)C(=O)N[C@@H](CCC(N)=O)C(=O)N[C@@H](CC(=O)O)C(=O)O [Gc48]	2	4	> 100 µM	2	4	> 100 µM	–	–	–	–	–	–
CC[C@H](C)[C@H](NC(=O)[C@H](CC(=O)O)NC(=O)[C@H](CO)NC(=O)[C@H](CCC(N)=O)NC(=O)[C@H](CC(C)C)NC(=O)[C@H](C)NC(=O)[C@H](C)NC(=O)[C@@H](NC(=O)[C@H](Cc1ccc(O)cc1)NC(=O)[C@H](CC(N)=O)NC(=O)[C@H](CCC(=O)O)NC(=O)[C@@H](NC(=O)[C@H](CC(=O)O)NC(=O)[C@@H]1CCCN1C(=O)[C@H](Cc1c[nH]cn1)NC(=O)[C@@H](N)CC(N)=O)[C@@H](C)CC)[C@@H](C)CC)C(=O)N[C@@H](C)C(=O)N[C@@H](CC(N)=O)C(=O)N[C@@H](CC(=O)O)C(=O)N[C@@H](CC(C)C)C(=O)N[C@H](C(=O)N[C@@H](CCSC)C(=O)N[C@@H](Cc1c[nH]cn1)C(=O)N[C@@H](Cc1ccc(O)cc1)C(=O)N[C@@H](Cc1ccccc1)C(=O)O)[C@@H](C)O [Gc30]	–	–	–	–	–	–	greater than 50%	12.5 µM	20 µM	50 µM	20 µM	–
CC[C@H](C)[C@H](NC(=O)[C@@H](NC(=O)[C@H](CC(C)C)NC(=O)[C@@H](NC(=O)[C@H](CC(N)=O)NC(=O)[C@H](CC(=O)O)NC(=O)[C@H](CCC(N)=O)NC(=O)[C@H](CCC(=O)O)NC(=O)[C@H](CC(C)C)NC(=O)[C@H](CC(C)C)NC(=O)[C@H](CC(C)C)NC(=O)[C@H](CS)NC(=O)[C@H](CO)NC(=O)[C@H](CCC(N)=O)NC(=O)[C@@H](N)Cc1ccc(O)cc1)[C@@H](C)O)[C@@H](C)O)C(=O)N[C@@H](C)C(=O)N[C@@H](CO)C(=O)N[C@H](C(=O)N[C@@H](CO)C(=O)N[C@@H](Cc1c[nH]cn1)C(=O)N[C@@H](CCSC)C(=O)N[C@@H](CCC(=O)O)C(=O)N[C@H](C(=O)N[C@@H](Cc1c[nH]cn1)C(=O)N[C@@H](CCCCN)C(=O)O)C(C)C)[C@@H](C)O [Gc49]	–	–	–	–	–	–	greater than 50%	10 µM	10 µM	25 µM	20 µM	200 µM
CC[C@H](C)[C@H](NC(=O)[C@H](CO)NC(=O)[C@@H](N)Cc1ccc(O)cc1)C(=O)N[C@@H](CCCCN)C(=O)N[C@@H](CC(C)C)C(=O)N[C@@H](CC(N)=O)C(=O)N[C@@H](CS)C(=O)N1CCC[C@H]1C(=O)N[C@@H](CC(C)C)C(=O)N[C@@H](C)C(=O)N[C@H](C(=O)N[C@@H](CCC(=O)O)C(=O)N[C@H](C(=O)N[C@H](C(=O)N[C@@H](CO)C(=O)N[C@H](C(=O)N[C@@H](CO)C(=O)N[C@H](C(=O)N[C@@H](CS)C(=O)N[C@@H](CO)C(=O)N[C@@H](C)C(=O)N[C@@H](CO)C(=O)N[C@@H](C)C(=O)N[C@@H](Cc1ccc(O)cc1)C(=O)N[C@H](C(=O)O)[C@@H](C)O)C(C)C)C(C)C)C(C)C)[C@@H](C)O)[C@@H](C)O [Gc56]	–	–	–	–	–	–	greater than 50%	100 µM	40 µM	50 µM	40 µM	200 µM
CC[C@H](C)[C@H](NC(=O)CNC(=O)[C@H](CCC(=O)O)NC(=O)[C@H](CCCCN)NC(=O)[C@H](Cc1ccc(O)cc1)NC(=O)[C@@H](NC(=O)[C@H](CCCNC(=N)N)NC(=O)[C@H](CS)NC(=O)[C@H](CC(C)C)NC(=O)[C@H](Cc1c[nH]c2ccccc12)NC(=O)[C@@H](NC(=O)[C@H](CO)NC(=O)[C@H](CS)NC(=O)[C@H](CCCCN)NC(=O)[C@H](CCCCN)NC(=O)[C@H](CC(=O)O)NC(=O)[C@H](Cc1c[nH]cn1)NC(=O)[C@H](CCC(N)=O)NC(=O)[C@H](CCC(=O)O)NC(=O)[C@@H](NC(=O)[C@@H](N)Cc1ccc(O)cc1)[C@@H](C)CC)[C@@H](C)O)C(C)C)C(=O)N[C@@H](CO)C(=O)N[C@H](C(=O)N[C@H](C(=O)N[C@@H](Cc1ccccc1)C(=O)O)[C@@H](C)CC)C(C)C [Gc59]	4	5	> 100 µM	3.6	5.7	> 100 µM	–	–	–	–	–	–
